Results: patent US20230227406A1, “MODULATORS OF E3 LIGASES” (Rekindle Therapeutics Inc., priority 2020, published 2023)

Key:
WWP1 = target: T1, WWP1 (Homo sapiens, UniProt Q9H0M0); assay: WWP1 MALDI-MS ubiquitin depletion assay (auto-ubiquitination); assay type: biochemical; settings: 30 min pre-incubation, 90 minutes at 37° C.
T1 construct: purchased Ubiquigent 63-0034-025/30033/D
Description: Modulators designed in these ways were tested for HECT domain E3 ligase activity in a MALDI TOF assay of auto-ubiquitination (De Cesare et al, Cell Chem. Biol, 2018, 25, 1117)
UBE1 (E-305 Boston Biochem), UBE2D1 (E2-616 Boston Biochem), WWP1 (Ubiquigent #63-0034-025/30033/D), ubiquitin variants (Boston Biochem; ubiquitin: U-100H; WT-His6-Ub: U-530; K27R-His6-Ub:UM-HK27R; K27O-His6-Ub: UM-HK27O), alpha-cyano-4-hydroxycinnamic acid (CHCA), ATP, trifluoroacetic acid (Millipore Sigma, St. Louis, Mo.), 384-well round-bottom polypropylene microplates (781280, Greiner, Stonehouse, UK), 384-well Anchorchip MALDI targets and Peptide Calibration Standard II (Bruker Daltonics, Billerica, Mass.).
Protocol: The WWP1 ubiquitin depletion assay consists of recombinant UBE1 (5 nM), UBE2D1 conjugating enzyme (60 nM) and WWP1 ligase (50 nM) in a 10 mM HEPES pH 8.0 containing 0.1 mg/mL BSA, 10 mM MgCl2, 1 mM ATP and 1500 nM ubiquitin. Screening was performed by dispensing 3.5 μL of an enzyme solution containing UBE1 (10 nM), UBE2D1 (120 nM), WWP1 (100 nM), ubiquitin ([…]) to a 384-well round bottom polypropylene plates followed by incubation at 37° C. for 30 min. Reactions were initiated by the addition of 3.5 μL of an ATP solution (2000 nM) then incubated at 37° C. for 90 minutes before being quenched by the addition of 5 μL of a 50 mM EDTA solution containing 750 nM of a ubiquitin labelled with a histidine expression tag (m/z=9460.0 Da).
For detection of ubiquitin and the ubiquitin-6His internal standards, 50 nL of quenched reaction was dispensed onto a 384-well Anchorchip MALDI target plate (Bruker) pre-coated with a uniform layer of CHCA crystals immediately followed by 200 nL of a 3 mg/mL CHCA matrix solution (6 mg of CHCA dissolved in 0.7 mL of 100% ethanol and 1.3 mL of 0.31% aqueous TFA) using a TTP Labtech Mosquito liquid handler. Spectra for all reactions were acquired on a Bruker AutoFlex II in positive linear TOF mode from 1000 laser shots with ion suppression below 4000 Da. Spectra were analyzed for response using a centroid peak-fitting algorithm to quantify ubiquitin (m/z=8564.0 Da) and ubiquitin-6His (m/z=9460.0 Da) followed taking the ratio of intensities of ubiquitin and the ubiquitin-6His internal standard.
For compound screening, 140 nL of diluted compound in 100% DMSO was added to the WWP1 enzyme solution and pre-incubated for 30 minutes prior to reaction initiation.

DU-145 cells = assay: Cellular proliferation assay (MTS) in DU-145 cells; assay type: cell-based; settings: Homo sapiens, 72 hours of incubation, read-out: IC50 values for selected compounds in DU-145 cells
Description: DU-145 cells were trypsinized, counted via Trypan blue method and resuspended in DMEM complete medium (10% FBS with Pen-strep antibiotics) as described in Lieu et al, Mol Cel Endorinol, 87:19-28, 1992. Cells were seeded at a density of 100 cells per well in 1001 volume of 96-well cell culture plate and were incubated overnight at 37° C. in 5% CO2 incubator. The next day, cells were given fresh media and the test compounds were added in different concentrations. After 72 hours of incubation, MTS reagent (procured from Promega) was added to the cells and they were incubated for an additional 2 hours. Finally, the plates read in the absorbance mode at 490 nm using an ELISA plate reader (Perkin Elmer Victor X3 plate reader). The % growth values were calculated as [(T−T0)/(C−T0)]×100, where T0 is the OD of cells at the time of compound addition, C is the vehicle control, T is the OD of the test concentrations at 72 hours. Percentage inhibition values were calculated using 100−([(T−T0)/(C−T0)]×100). IC50 values were calculated in graph pad prism software using dose response curve nonlinear regression method.

[1] = tested on: phosphorylated AKT and phosphorylated Ribosomal Protein S6; assay: Western blot of AKT and S6 phosphorylation in Hs578T cells; assay type: cell-based, human; settings: 48 hours, indicated concentrations
Description: Hs578T cells (human triple negative breast cancer) were treated with the indicated concentration of COMPOUND 1 for 48 hours prior to harvesting. The “0” concentration is DMSO only (0.5%, same as was used for compound doses). […] Analysis occurred via western blot using the indicated antibodies. Quantification by densitometry of the bands from the western blot are presented for phosphorylated AKT/Total AKT and phosphorylated Ribosomal Protein S6/Total Ribosomal Protein S6. COMPOUND 1 reduced both AKT and S6 phosphorylation relative to their respective total protein levels.
The data presented here are consistent with the previous replicate in Hs578T cells, and the observation is preserved in another TNBC cell line, BT-20. COMPOUND 1 reduces the phospho-AKT/vinculin loading control and phospho-S6/total S6 ratios. Methods are the same as the previous replicate, using the indicated doses.
Hs578T cells (human triple negative breast cancer) were treated with the indicated concentration of COMPOUND 6 for 48 hours prior to harvesting. The “0” concentration is DMSO only (0.5%, same as was used for compound doses). […] Analysis occurred via western blot using the indicated antibodies.
The data presented here are consistent with the previous replicate in Hs578T cells. COMPOUND 6 reduces the phospho-AKT/vinculin loading control and phospho-S6/total S6 ratios. Methods are the same as the previous replicate, using the indicated doses.
Hs578T cells (human triple negative breast cancer) were treated with the indicated concentration of COMPOUND 7 for 48 hours before harvesting. The “0” concentration is DMSO only (0.5%, same as was used for compound doses). […] Analysis occurred via western blot using the indicated antibodies.
The data presented here are consistent with the previous replicate in Hs578T cells. COMPOUND 7 reduces the phospho-S6/vinculin loading control ratio. Methods are the same as the previous replicate, using the indicated doses.
Hs578T cells (human triple negative breast cancer) were treated with the indicated concentration of COMPOUND 8 for 48 hours and then harvested. The “0” concentration is DMSO only (0.5%, same as was used for compound doses). […] Analysis occurred via western blot using the indicated antibodies.

T1 sequence (Q9H0M0 whole entry): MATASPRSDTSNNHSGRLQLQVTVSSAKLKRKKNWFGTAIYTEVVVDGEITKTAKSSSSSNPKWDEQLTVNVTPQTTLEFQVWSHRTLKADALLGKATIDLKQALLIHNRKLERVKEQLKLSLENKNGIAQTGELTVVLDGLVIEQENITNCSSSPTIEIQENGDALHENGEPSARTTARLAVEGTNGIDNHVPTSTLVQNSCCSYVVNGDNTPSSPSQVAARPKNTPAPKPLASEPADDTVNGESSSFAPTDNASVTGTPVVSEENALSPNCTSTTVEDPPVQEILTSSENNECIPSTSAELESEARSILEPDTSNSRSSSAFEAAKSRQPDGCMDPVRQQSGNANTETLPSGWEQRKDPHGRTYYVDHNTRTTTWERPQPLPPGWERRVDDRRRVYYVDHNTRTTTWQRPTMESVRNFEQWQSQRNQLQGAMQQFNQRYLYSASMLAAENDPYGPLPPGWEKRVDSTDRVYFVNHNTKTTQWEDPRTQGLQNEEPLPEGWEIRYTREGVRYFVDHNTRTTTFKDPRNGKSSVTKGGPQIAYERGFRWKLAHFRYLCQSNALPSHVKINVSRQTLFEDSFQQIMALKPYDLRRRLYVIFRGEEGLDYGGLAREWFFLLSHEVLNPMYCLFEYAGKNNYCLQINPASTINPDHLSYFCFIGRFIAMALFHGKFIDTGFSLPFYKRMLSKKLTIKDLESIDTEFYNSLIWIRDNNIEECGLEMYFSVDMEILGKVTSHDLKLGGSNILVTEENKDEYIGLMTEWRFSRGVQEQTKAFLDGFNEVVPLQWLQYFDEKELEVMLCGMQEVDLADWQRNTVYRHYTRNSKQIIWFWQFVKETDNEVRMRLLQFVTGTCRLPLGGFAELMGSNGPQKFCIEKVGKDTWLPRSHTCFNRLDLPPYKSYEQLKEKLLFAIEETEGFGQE

C#Cc1ccc2c(C=O)cn(-c3ccccc3)c2c1 [Compound 1, 6-ethynyl-1-phenyl-1H-indole-3-carbaldehyde]
IC50 (WWP1): 5 µM
IC50 (DU-145 cells): 13.5 µM
AKT phosphorylation (relative to total AKT or vinculin loading control) [1]: reduces
S6 phosphorylation (relative to total S6 or vinculin loading control) [1]: reduces

C#CCNC(=O)c1ccc2c(Cc3c[nH]c4ccccc34)c[nH]c2c1 [Compound 6, 3-((1H-indol-3-yl)methyl)-N-(prop-2-yn-1-yl)-1H-indole-6-carboxamide]
IC50 (WWP1): 32 µM
IC50 (DU-145 cells): 8.08 µM
AKT phosphorylation (relative to total AKT or vinculin loading control) [1]: reduces
S6 phosphorylation (relative to total S6 or vinculin loading control) [1]: reduces

C#CCN(CCO)C(=O)c1ccc2c(Cc3c[nH]c4ccccc34)c[nH]c2c1 [Compound 7, 3-((1H-indol-3-yl)methyl)-N-(2-hydroxyethyl)-N-(prop-2-yn-1-yl)-1H-indole-6-carboxamide]
IC50 (WWP1): 15 µM
IC50 (DU-145 cells): 5.01 µM
AKT phosphorylation (relative to total AKT or vinculin loading control) [1]: reduced
S6 phosphorylation (relative to total S6 or vinculin loading control) [1]: reduces
